The results in this text go back to patent US10875851B2, “Factor XIIa inhibitors” (Merck Sharp & Dohme Corp., priority 2016, dated 2020).

Usually IC50 stands for the midpoint of a concentration-inhibition curve.

human Factor XIIa, sequence (P00748 373-615): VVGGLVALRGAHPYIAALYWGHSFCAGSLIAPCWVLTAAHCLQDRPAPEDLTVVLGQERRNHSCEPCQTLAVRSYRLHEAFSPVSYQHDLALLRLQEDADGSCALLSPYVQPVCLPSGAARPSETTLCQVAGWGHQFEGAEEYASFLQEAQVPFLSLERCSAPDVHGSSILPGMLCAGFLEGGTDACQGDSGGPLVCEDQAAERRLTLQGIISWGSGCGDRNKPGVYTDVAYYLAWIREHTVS

In the experiment the target is human Factor XIIa (Homo sapiens (Human), UniProt P00748). As to the kind of experiment: Factor XIIa Assay. It is filed as biochemical. The note with it: purified human Factor XIIa 500 pM; substrate n-Acetyl-Lys-Pro-Arg-AFC 100 μM; pH 7.4; read-out: FXIIa IC50. How it is done:
The effectiveness of a compound of the present invention as an inhibitor of Coagulation Factor XIIa can be determined using a relevant purified serine protease, and an appropriate synthetic substrate. The rate of hydrolysis of the chromogenic or fluorogenic substrate by the relevant serine protease was measured both in the absence and presence of compounds of the present invention. Assays were conducted at room temperature or at 37° C. […] A decrease in the rate of fluorescence change in the presence of inhibitor is indicative of enzyme inhibition. Such methods are known to one skilled in the art.
Factor XIIa activity determinations were made in 50 mM HEPES buffer containing 150 mM NaCl, 5 mM CaCl2, and 0.1% PEG 8000 (polyethylene glycol; JT Baker or Fisher Scientific) at pH 7.4. Determinations were made using purified human Factor XIIa at a final concentration of 500 pM (Sekisui Diagnostics) and the synthetic substrate, n-Acetyl-Lys-Pro-Arg-AFC, TFA salt (Sigma #C6608) at a concentration of 100 μM.
Times required to achieve equilibration between enzyme and inhibitor were determined in control experiments. Initial velocities of product formation in the absence (Vo) or presence of inhibitor (Vi) were measured. IC50 was determined as the concentration of I yielding Vi=Vo/2.
As for `CC(C)N[C@H](CCCCN1CCCCC1)C(=O)N1CCN(C2=N[C@@H](C)[C@H](c3ccccc3)O2)C[C@H]1C(=O)NCc1cccs1` [Example 115, (2S)-1-[N-(1-methylethyl)-6-piperidin-1-yl-D-norleucyl]-4-[(4S,5S)-4-methyl-5-phenyl-4,5-dihydro-1,3-oxazol-2-yl]-N-(thiophen-2-ylmethyl)piperazine-2-carboxamide], the concentration for half-maximal inhibition (IC50) is 3.8 nM. `C[C@@H]1N=C(N2CCN(C(=O)[C@H](CCCCN(C)C)NC3CCC4(CC3)CCN(Cc3ccccc3)C4)[C@H](C(=O)NCc3cccs3)C2)O[C@H]1c1ccccc1` (stereo partly shown) [Example 136]: the IC50 came to 23.2 nM.

As to `CC(C)NCCCC[C@@H](NC(C)C)C(=O)N1CCN(C2=N[C@@H](C)[C@H](c3ccccc3)O2)C[C@H]1C(=O)NCc1cccc(Cl)c1` [Example 166, (2S)-1-[N^2,N^6-bis(1-methylethyl)-D-lysyl]-N-(3-chlorobenzyl)-4-[(4S,5S)-4-methyl-5-phenyl-4,5-dihydro-1,3-oxazol-2-yl]piperazine-2-carboxamide], the IC50 worked out at 6.8 nM. Then `CC(C)S(=O)(=O)N1CCC([C@@H](NC2CCCCC2)C(=O)N2CCN(C(=O)Oc3ccccc3Cl)C[C@H]2C(=O)NCc2cccs2)CC1` [Example 63, 2-chlorophenyl (3S)-4-[(2R)-2-(cyclohexylamino)-2-{1-[(1-methylethyl)sulfonyl]piperidin-4-yl}acetyl]-3-[(thiophen-2-ylmethyl)carbamoyl]piperazine-1-carboxylate], with 2.6 nM; and `C[C@@H]1N=C(N2CCN(C(=O)[C@H](N)CCCCN3CCCCC3)[C@H](C(=O)NCc3ccc4[nH]cc(Cl)c4c3)C2)O[C@H]1c1ccccc1` [Example 162, (2S)-N-[(3-chloro-1H-indol-5-yl)methyl]-4-[(4S,5S)-4-methyl-5-phenyl-4,5-dihydro-1,3-oxazol-2-yl]-1-(6-piperidin-1-yl-D-norleucyl)piperazine-2-carboxamide], with 8.4 nM; and `CN(C)CCCC[C@H](C(=O)N1CCN(C2=NC(C)(C)C(c3ccccc3)O2)C[C@H]1C(=O)NCc1cccc(Cl)c1)N(C)C` (stereo partly drawn) [Example 139, (2S)-N-(3-chlorobenzyl)-4-(4,4-dimethyl-5-phenyl-4,5-dihydro-1,3-oxazol-2-yl)-1-(N^2,N^2,N^6,N^6-tetramethyl-D-lysyl)piperazine-2-carboxamide], with 52.4 nM. With `COC(N)c1cccc(OC(=O)N2CCN(C(=O)[C@@H](CCCCNS(C)(=O)=O)NC3CCC4(CC3)CCN(Cc3ccccc3)C4)[C@H](C(=O)NCc3cccs3)C2)c1` (stereo partly drawn) [Example 75, 3-[amino(methoxy)methyl]phenyl (3S)-4-[N^2-(2-benzyl-2-azaspiro[4.5]dec-8-yl)-N^6-(methylsulfonyl)-D-lysyl]-3-[(thiophen-2-ylmethyl)carbamoyl]piperazine-1-carboxylate] the figure was 5.7 nM; with `COc1cc(CNC(=O)[C@@H]2CN(C3=N[C@@H](C)[C@H](c4ccccc4)O3)CCN2C(=O)[C@@H](CCCCN2CCCCC2)NC2CCC(CN)CC2)ccc1C(N)=O` (stereo partly drawn) [Example 165, (2S)-1-{N-[4-(aminomethyl)cyclohexyl]-6-piperidin-1-yl-D-norleucyl}-N-(4-carbamoyl-3-methoxybenzyl)-4-[(4S,5S)-4-methyl-5-phenyl-4,5-dihydro-1,3-oxazol-2-yl]piperazine-2-carboxamide], 41.1 nM; with `C[C@@H]1N=C(N2CCN(C(=O)[C@@H](CCCCN(C)C)NC3CCC4(CC3)CCN(Cc3ccccc3)C4)[C@H](C(=O)NCc3cccs3)C2)O[C@H]1c1ccccc1` (stereo partly drawn) [Example 142, (2S)-1-[N^2-(2-benzyl-2-azaspiro[4.5]dec-8-yl)-N^6,N^6-dimethyl-D-lysyl]-4-[(4S,5S)-4-methyl-5-phenyl-4,5-dihydro-1,3-oxazol-2-yl]-N-(thiophen-2-ylmethyl)piperazine-2-carboxamide], 0.4 nM. With `Cc1ccc(OC(=O)N2CCN(C(=O)[C@@H](CC3CCCCC3)NC3CCCCC3)[C@H](C(=O)NCc3cccs3)C2)c(Cl)c1C` [Example 94, 2-chloro-3,4-dimethylphenyl (3S)-4-(N,3-dicyclohexyl-D-alanyl)-3-[(thiophen-2-ylmethyl)carbamoyl]piperazine-1-carboxylate] the figure was 7.5 nM; with `Cc1ccc(OC(=O)N2CCN(C(=O)[C@@H](CCCCN(C)C)NC3CCC4(CC3)CCN(Cc3ccccc3)C4)[C@H](C(=O)NCc3cccs3)C2)c(Cl)c1C` (stereo partly drawn) [Example 108, 2-chloro-3,4-dimethylphenyl (3S)-4-[N^2-(2-benzyl-2-azaspiro[4.5]dec-8-yl)-N^6,N^6-dimethyl-D-lysyl]-3-[(thiophen-2-ylmethyl)carbamoyl]piperazine-1-carboxylate], 0.3 nM; with `COc1cc(CNC(=O)[C@@H]2CN(C(=O)Oc3ccc4ccccc4c3Cl)CCN2C(=O)[C@@H](CCCCNS(C)(=O)=O)NC2CCC3(CC2)CCN(Cc2ccccc2)C3)ccc1CN` (stereo partly drawn) [Example 74, 1-chloronaphthalen-2-yl (3S)-3-{[4-(aminomethyl)-3-methoxybenzyl]carbamoyl}-4-[N^2-(2-benzyl-2-azaspiro[4.5]dec-8-yl)-N^6-(methylsulfonyl)-D-lysyl]piperazine-1-carboxylate], 3.7 nM. On to `CN(C)CCCC[C@H](C(=O)N1CCN(C2=NC(C)(C)C(c3ccccc3)O2)C[C@H]1C(=O)NCc1ccc(CN)c(Cl)c1)N(C)C` (stereo partly drawn) [Example 149, (2S)-N-[4-(aminomethyl)-3-chlorobenzyl]-4-(4,4-dimethyl-5-phenyl-4,5-dihydro-1,3-oxazol-2-yl)-1-(N^2,N^2,N^6,N^6-tetramethyl-D-lysyl)piperazine-2-carboxamide], for which the IC50 came out at 34.9 nM. For the compound `O=C(NCc1cccs1)[C@@H]1CN(C(=O)Oc2ccccc2Cl)CCN1C(=O)[C@@H](CCCCN1CCCS1(=O)=O)NC1CCCCC1` [Example 77, 2-chlorophenyl (3S)-4-[N-cyclohexyl-6-(1,1-dioxidoisothiazolidin-2-yl)-D-norleucyl]-3-[(thiophen-2-ylmethyl)carbamoyl]piperazine-1-carboxylate], the IC50 is 4.6 nM. With `CC(C)N[C@H](CCCCN1CCCCC1)C(=O)N1CCN(C2=N[C@@H](C)[C@H](c3ccccc3)O2)C[C@H]1C(=O)NCc1cccc(Cl)c1` [Example 175, (2S)-N-(3-chlorobenzyl)-1-[N-(1-methylethyl)-6-piperidin-1-yl-D-norleucyl]-4-[(4S,5S)-4-methyl-5-phenyl-4,5-dihydro-1,3-oxazol-2-yl]piperazine-2-carboxamide] the figure was 6.6 nM.

As to `CC[C@@H](NC1CCCCC1)C(=O)N1CCN(C(=O)Oc2ccc(C)c(C)c2Cl)C[C@H]1C(=O)NCc1ccc(CN)c(OC)c1` [Example 106, 2-chloro-3,4-dimethylphenyl (3S)-3-{[4-(aminomethyl)-3-methoxybenzyl]carbamoyl}-4-[(2R)-2-(cyclohexylamino)butanoyl]piperazine-1-carboxylate], the half-maximal inhibitory concentration (IC50) was 6.2 nM. With `C[C@@H]1N=C(N2CCN(C(=O)[C@@H](CCCCN3CCCCC3)NC3CCC(CN)CC3)[C@H](C(=O)NCc3cccc(Cl)c3)C2)O[C@H]1c1ccccc1` (stereo partly drawn) [Example 176, (2S)-1-{N-[4-(aminomethyl)cyclohexyl]-6-piperidin-1-yl-D-norleucyl}-N-(3-chlorobenzyl)-4-[(4S,5S)-4-methyl-5-phenyl-4,5-dihydro-1,3-oxazol-2-yl]piperazine-2-carboxamide], the IC50 is 29 nM. Then `CC(C)N[C@H](CCCCN1CCCCC1)C(=O)N1CCN(C2=N[C@@H](C)[C@H](c3ccccc3)O2)C[C@H]1C(=O)NCc1ccc(CN)cc1` [Example 180, (2S)-N-[4-(aminomethyl)benzyl]-1-[N-(1-methylethyl)-6-piperidin-1-yl-D-norleucyl]-4-[(4S,5S)-4-methyl-5-phenyl-4,5-dihydro-1,3-oxazol-2-yl]piperazine-2-carboxamide], with 47.1 nM; and `NCc1cccc(OC(=O)N2CCN(C(=O)[C@@H](CC3CCCCC3)NC3CCCCC3)[C@H](C(=O)NCc3cccs3)C2)c1Cl` [Example 55, 3-(aminomethyl)-2-chlorophenyl (3S)-4-(N,3-dicyclohexyl-D-alanyl)-3-[(thiophen-2-ylmethyl)carbamoyl]piperazine-1-carboxylate], with 1.1 nM; and `CN(C)CCCC[C@@H](NC1CCC2(CC1)CCN(Cc1ccccc1)C2)C(=O)N1CCN(C(=O)CC2CCCC2)C[C@H]1C(=O)NCc1cccs1` (stereo partly drawn) [Example 93, (2S)-1-[N^2-(2-benzyl-2-azaspiro[4.5]dec-8-yl)-N^6,N^6-dimethyl-D-lysyl]-4-(cyclopentylacetyl)-N-(thiophen-2-ylmethyl)piperazine-2-carboxamide], with 23.5 nM. With `CC(C)N[C@H](CCCCN1CCCCC1)C(=O)N1CCN(C2=NC(C)(C)C(c3ccccc3)O2)C[C@H]1C(=O)NCc1cccc(Cl)c1` (stereo partly drawn) [Example 160, (2S)-N-(3-chlorobenzyl)-4-(4,4-dimethyl-5-phenyl-4,5-dihydro-1,3-oxazol-2-yl)-1-[N-(1-methylethyl)-6-piperidin-1-yl-D-norleucyl]piperazine-2-carboxamide] the figure was 13.8 nM; with `O=C(NCc1cccs1)[C@@H]1CN(C(=O)Oc2ccccc2Cl)CCN1C(=O)[C@@H](CCCCN1CCOCC1)NC1CCC2(CC1)CCN(Cc1ccccc1)C2` (stereo partly drawn) [Example 95, 2-chlorophenyl (3S)-4-[N-(2-benzyl-2-azaspiro[4.5]dec-8-yl)-6-morpholin-4-yl-D-norleucyl]-3-[(thiophen-2-ylmethyl)carbamoyl]piperazine-1-carboxylate], 1.8 nM.
